These results are taken from article PMC7602263, “Exploring the Use of Helicogenic Amino Acids for Optimising Single Chain Relaxin-3 Peptide Agonists” (Biomedicines, 2020).

The target of experiment [1] is T1, RXFP3 (Homo sapiens, UniProt Q9NSD7).
T1 construct: expressed in transfected cells; host or cells: CHO-K1
T1 sequence (Q9NSD7 1-469): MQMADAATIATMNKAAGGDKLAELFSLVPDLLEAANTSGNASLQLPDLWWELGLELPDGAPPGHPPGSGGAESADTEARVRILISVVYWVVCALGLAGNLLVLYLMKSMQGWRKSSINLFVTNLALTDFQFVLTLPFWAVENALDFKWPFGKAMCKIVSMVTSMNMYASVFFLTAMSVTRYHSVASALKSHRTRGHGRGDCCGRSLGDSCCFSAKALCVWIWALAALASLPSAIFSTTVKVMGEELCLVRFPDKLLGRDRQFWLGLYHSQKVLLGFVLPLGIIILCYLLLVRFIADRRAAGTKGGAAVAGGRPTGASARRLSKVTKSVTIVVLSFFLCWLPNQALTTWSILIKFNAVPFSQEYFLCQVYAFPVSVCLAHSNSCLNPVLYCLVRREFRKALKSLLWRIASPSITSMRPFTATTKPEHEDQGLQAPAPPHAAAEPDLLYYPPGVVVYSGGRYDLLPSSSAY
Kind of experiment: Competition binding assay with Eu-labelled R3 B1-22R on CHO-K1 cells stably expressing RXFP3. The settings on record: read-out: pKi [logM] (converted). As for the experimental part: Determination of binding affinity in this study was carried out as previously described. Briefly, CHO-K1 cells stably expressing RXFP3 [38] were treated with 5 nM Eu-labelled R3 B1-22R with increasing concentrations of novel analogues. Fluorescence measurement were recorded with 340 nm excitation and 614 nm emission wavelengths. Assays were conducted in triplicates and independently repeated at least three times. […] Statistical analyses were conducted using 1-way ANOVA with uncorrected Fisher’s least square difference in GraphPad Prism 8.0.
(§1) To determine their binding affinity, the ability of increasing concentration of analogues to compete with europium labelled R3 B1-22R were measured using CHO cells stably expressing RXFP3 [37]. Their potency at RXFP3 was measured by inhibition of cAMP accumulation induced by forskolin, as RXFP3 couples to an inhibitory G-protein.

The target in experiment [2] is T1, RXFP3. Put plainly: cAMP activity assay: inhibition of forskolin-induced cAMP accumulation in CHO-K1 cells stably expressing RXFP3. The experiment is classed as cell-based. The settings on record: CHO-K1 cells stably expressing RXFP3; inhibition of cAMP accumulation stimulated by 5 μM forskolin; mean ± SEM, triplicates, three independent experiments; SEM. As to the method:
CHO-KI cells stably expressing RXFP3 were used to study the ability of the novel analogues to inhibit forskolin-induced cAMP accumulation. Assays were conducted as previously described. Briefly, 5 μM forskolin was used to stimulate the cells and increasing concentrations of the novel analogues were added to measure the dose-dependent reduction in the cAMP response via activation of the Gi/o-coupled RXFP3. Each analogue was tested in triplicates and each experiment was independently repeated three times. Data are presented as mean ± SEM and were analysed using GraphPad Prism 8.0. Statistical analyses were conducted using 1-way ANOVA and uncorrected Fisher’s least square difference.
as §1

Experiment [3] addresses T1, RXFP3. Set-up: method as in 2 sources, one per row (each row's own in cited_ref): ref [37] = [37]; PMID 25792111; doi:10.1007/s00726-015-1961-x; 37. Haugaard-Kedström L.M. Wong L.L. Bathgate R.A. Rosengren K.J. Synthesis and pharmacological characterization of a europium-labelled single-chain antagonist for binding studies of the relaxin-3 rec ||| ref [28] = [28]; PMID 27464307; doi:10.1021/acs.jmedchem.6b00265; 28. Hojo K. Hossain M.A. Tailhades J. Shabanpoor F. Wong L.L. Ong-Palsson E.E. Kastman H.E. Ma S.K. Gundlach A.L. Rosengren K.J. Development of a single-chain peptide agonist of the relaxin-3 receptor. The settings on record: read-out: Kd for Eu-R3 B1-22R; Kd of the Eu-labelled tracer at RXFP3, used to calculate pKi values; assay as previously described; ref [37]; cited from earlier work.

Like-named read-outs stand apart in the source and are kept apart here. Where a SMILES comes first, the peptide text is derived from it. Where no end group is shown, it is not given here.

The term EC50 denotes the concentration needed to bring the measured effect to its halfway point. Read a high EC50 as a less potent agent. With `CC[C@H](C)[C@@H]1NC(=O)[C@H](Cc2ccccc2)NC(=O)[C@@H](NC(=O)[C@H](CCCNC(=N)N)NC(=O)CNC(=O)[C@H](CO)NC(C)=O)CSCC(=O)CSC[C@@H](C(=O)N[C@H](C(=O)N[C@H](C(=O)N[C@@H](Cc2ccccc2)C(=O)N[C@H](C(=O)N[C@@H](CO)C(=O)NCC(=O)NCC(=O)N[C@@H](CO)C(=O)N[C@@H](CCCNC(=N)N)C(=O)N[C@@H](Cc2c[nH]c3ccccc23)C(=O)O)[C@@H](C)O)[C@@H](C)CC)C(C)C)NC(=O)[C@H](CCCNC(=N)N)NC1=O` [Analogue 15] (HELM PEPTIDE1{[ac].S.G.R.C.F.I.R.C.V.I.F.T.S.G.G.S.R.W}|CHEM1{[O=C(C[*:1])C[*:2]]}$PEPTIDE1,CHEM1,5:R3-1:R1|PEPTIDE1,CHEM1,9:R3-1:R2$$$V2.0), the Ki on RXFP3 [1] (SEM) was 4790 nM. On RXFP3 [2], this molecule showed an EC50 of 4790 nM. On to `CC[C@H](C)[C@@H]1NC(=O)[C@H](Cc2ccccc2)NC(=O)[C@@H](NC(=O)[C@H](CCCNC(=N)N)NC(=O)CNC(=O)[C@@H](N)CO)CSCC(=O)CSC[C@@H](C(=O)N[C@H](C(=O)N[C@H](C(=O)N[C@@H](Cc2ccccc2)C(=O)N[C@H](C(=O)N[C@@H](CO)C(=O)NCC(=O)NCC(=O)N[C@@H](CO)C(=O)N[C@@H](CCCNC(=N)N)C(=O)N[C@@H](Cc2c[nH]c3ccccc23)C(=O)O)[C@@H](C)O)[C@@H](C)CC)C(C)C)NC(=O)[C@H](CCCNC(=N)N)NC1=O` [Analogue 14] (HELM PEPTIDE1{S.G.R.C.F.I.R.C.V.I.F.T.S.G.G.S.R.W}|CHEM1{[O=C(C[*:1])C[*:2]]}$PEPTIDE1,CHEM1,4:R3-1:R1|PEPTIDE1,CHEM1,8:R3-1:R2$$$V2.0), for which the Ki at RXFP3 [1] is above 10000 nM. The same molecule had a 50% effective concentration (EC50) at RXFP3 [2] of 6170 nM. As to `CC[C@H](C)[C@H](NC(=O)[C@H](Cc1ccccc1)NC(=O)C(C)(C)NC(=O)[C@H](CCCNC(=N)N)NC(=O)CNC(=O)[C@H](CO)NC(C)=O)C(=O)N[C@@H](CCCNC(=N)N)C(=O)NC(C)(C)C(=O)N[C@H](C(=O)N[C@H](C(=O)N[C@@H](Cc1ccccc1)C(=O)N[C@H](C(=O)N[C@@H](CO)C(=O)NCC(=O)NCC(=O)N[C@@H](CO)C(=O)N[C@@H](CCCNC(=N)N)C(=O)N[C@@H](Cc1c[nH]c2ccccc12)C(=O)O)[C@@H](C)O)[C@@H](C)CC)C(C)C` [Analogue 1] (HELM PEPTIDE1{[ac].S.G.R.[Aib].F.I.R.[Aib].V.I.F.T.S.G.G.S.R.W}$$$$V2.0), on RXFP3 [1] (SEM), the Ki is 562 nM. The concentration giving a half-maximal response (EC50) on RXFP3 [2] is 67.6 nM. `CC[C@H](C)[C@H](NC(=O)[C@H](Cc1ccccc1)NC(=O)C(C)(C)NC(=O)[C@H](CCCNC(=N)N)NC(=O)CNC(=O)[C@H](CO)NC(C)=O)C(=O)N[C@@H](CCCNC(=N)N)C(=O)NC(C)(C)C(=O)NC(C)(C)C(=O)N[C@H](C(=O)N[C@@H](Cc1ccccc1)C(=O)N[C@H](C(=O)N[C@@H](CO)C(=O)NCC(=O)NCC(=O)N[C@@H](CO)C(=O)N[C@@H](CCCNC(=N)N)C(=O)N[C@@H](Cc1c[nH]c2ccccc12)C(=O)O)[C@@H](C)O)[C@@H](C)CC` [Analogue 4] (HELM PEPTIDE1{[ac].S.G.R.[Aib].F.I.R.[Aib].[Aib].I.F.T.S.G.G.S.R.W}$$$$V2.0): the Ki at RXFP3 [1] (SEM) is 759 nM. On RXFP3 [2], this molecule had an EC50 of 33.1 nM. A word on the Kd: it is the concentration at which binding is half-saturated. With “Eu-R3 B1-22R: europium-labelled single-chain antagonist used as tracer in the RXFP3 binding assay (RAAPYGVRLSGREFIRAVIFTSR; also: europium chelate label, attachment site not given here)”, the Kd in the experiment with RXFP3 [3] is 27.9 ± 9.4 nM. In the case of `CC[C@H](C)[C@H](NC(=O)[C@H](Cc1ccccc1)NC(=O)C(C)(C)NC(=O)[C@H](CCCNC(=N)N)NC(=O)CNC(=O)[C@@H](N)CO)C(=O)N[C@@H](CCCNC(=N)N)C(=O)NC(C)(C)C(=O)NC(C)(C)C(=O)N[C@H](C(=O)N[C@@H](Cc1ccccc1)C(=O)NC(C)(C)C(=O)N[C@@H](CO)C(=O)NCC(=O)NCC(=O)N[C@@H](CO)C(=O)N[C@@H](CCCNC(=N)N)C(=O)N[C@@H](Cc1c[nH]c2ccccc12)C(=O)O)[C@@H](C)CC` [Analogue 9] (HELM PEPTIDE1{S.G.R.[Aib].F.I.R.[Aib].[Aib].I.F.[Aib].S.G.G.S.R.W}$$$$V2.0), at RXFP3 [1] (SEM), the Ki is 2000 nM. Also, the EC50 at RXFP3 [2] is 1780 nM.

On to `C=CCCC[C@](C)(NC(=O)[C@H](CCCNC(=N)N)NC(=O)CNC(=O)[C@H](CO)NC(C)=O)C(=O)N[C@@H](Cc1ccccc1)C(=O)N[C@H](C(=O)N[C@@H](CCCNC(=N)N)C(=O)N[C@@](C)(CCCC=C)C(=O)N[C@H](C(=O)N[C@H](C(=O)N[C@@H](Cc1ccccc1)C(=O)N[C@H](C(=O)N[C@@H](CO)C(=O)NCC(=O)NCC(=O)N[C@@H](CO)C(=O)N[C@@H](CCCNC(=N)N)C(=O)N[C@@H](Cc1c[nH]c2ccccc12)C(=O)O)[C@@H](C)O)[C@@H](C)CC)C(C)C)[C@@H](C)CC` [Analogue 11] (HELM PEPTIDE1{[ac].S.G.R.[C=CCCC[C@](C)(N[*:1])C(=O)[*:2]].F.I.R.[C=CCCC[C@](C)(N[*:1])C(=O)[*:2]].V.I.F.T.S.G.G.S.R.W}$$$$V2.0), for which the Ki at RXFP3 [1] (SEM) was 933 nM. Also, a half-maximal effect on RXFP3 [2] (EC50) was put at 41.7 nM. In the case of `CC[C@H](C)[C@H](NC(=O)[C@H](Cc1ccccc1)NC(=O)C(C)(C)NC(=O)[C@H](CCCNC(=N)N)NC(=O)CNC(=O)[C@H](CO)NC(C)=O)C(=O)N[C@@H](CCCNC(=N)N)C(=O)NC(C)(C)C(=O)NC(C)(C)C(=O)N[C@H](C(=O)N[C@@H](Cc1ccccc1)C(=O)NC(C)(C)C(=O)N[C@@H](CO)C(=O)NCC(=O)NCC(=O)N[C@@H](CO)C(=O)N[C@@H](CCCNC(=N)N)C(=O)N[C@@H](Cc1c[nH]c2ccccc12)C(=O)O)[C@@H](C)CC` [Analogue 10] (HELM PEPTIDE1{[ac].S.G.R.[Aib].F.I.R.[Aib].[Aib].I.F.[Aib].S.G.G.S.R.W}$$$$V2.0), the Ki at RXFP3 [1] is above 10000 nM. At RXFP3 [2], it took 3240 nM to reach a half-maximal effect (EC50).
